Common to all, as to assay: growth of human tumour cells (NCI), 48 h
In assay [1] the test system is SF-268 CNS.
The test system of assay [2] is UO-31 renal.
Assay [3] concerns BT-549 breast.
The subject of assay [4] is MCF7 breast.
The subject of assay [5] is LOX IMVI melanoma.
For assay [6], the system named is 786-0 renal.
Assay [7] has as its system U251 CNS.
Assay [8] relates to OVCAR-4 ovarian.
The subject of assay [9] is KM12 colon.
Assay [10] has as its system CAKI-1 renal.

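In this assay, cells in 96-well plates receive the compound at five concentrations for 48 hours. Endpoints are linearly interpolated between the surrounding concentrations. GI50: concentration for 50% inhibition of growth. TGI: concentration producing complete growth inhibition.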

Experimental findings from PubChem BioAssay (NCI) are described below.

In the case of `COc1ccc(C2SC(N)=Nc3c2c(C)nn3C(=O)c2ccncc2)cc1` (stereo unspecified), the TGI in assay [1], in assay [2], in assay [3], in assay [4], in [5] and in assay [6] was over 100 µM each time. Also, the TGI in [7], in assay [8] and in assay [9] was over 100 µM throughout.
Consider `CCOC(=O)C(=[N+]=[N-])C(=O)C[N+]12CCN(CC1)CC2`, for which the TGI in assay [10], in assay [1], in assay [2], in [3], in [5] and in assay [6] was over 100 µM throughout. Further, the TGI in [7], in [8] and in [9] was over 100 µM each time.
On to `COc1c(-c2cc(C)c(Cl)c(=O)[nH]2)c(O)c(OC)c2occc12`, for which the TGI in assay [10], in [1], in assay [2], in assay [4], in assay [5] and in [6] was over 100 µM throughout. In addition, the TGI in assay [7], in assay [8] and in assay [9] was over 100 µM in each case.
With `N/C(=N\N=C\c1ccc2c(c1)OCO2)NO`, the TGI is over 100 µM in assay [10]; 75.4 µM in assay [1]; over 100 µM in assay [4]; 82.5 µM in assay [5]; 37.7 µM in assay [6]; over 100 µM in [7]. Besides, the TGI was over 100 µM in assay [8] and 63.6 µM in assay [9].
For `Nn1c(Cc2ccc(Cl)cc2)n[nH]c1=O`, the TGI in assay [10], in assay [1], in [2], in assay [5], in assay [6] and in assay [7] was over 100 µM throughout. For the same compound, the TGI in [8] and in assay [9] was over 100 µM each time.
For the compound `Cc1cn(C2CC(O)C(CO)C2C)c(=O)[nH]c1=O` (stereo unspecified), the TGI in assay [1], in assay [2], in assay [5], in [7], in assay [8] and in assay [9] was over 100 µM each time.
Regarding `Cc1cccc2c1C(=O)C1(Cc3ccccc3C1=O)C2` (stereo unspecified), the TGI was over 100 µM in [1]; 96.2 µM in assay [2]; over 100 µM in assay [4]; over 100 µM in assay [5]; over 100 µM in [6]; over 100 µM in assay [7]. Besides, the TGI in [8] is over 100 µM.
Turning to `CCNC(=S)N/N=C/c1cc(OC)ccc1O`, the TGI in assay [1], in [2], in assay [4], in assay [5], in assay [6] and in assay [7] was over 100 µM throughout. Also, the TGI in assay [8] and in [9] was over 100 µM in each case.
As for `C/C(O)=C/c1nc2ccccc2nc1/C=C(/C)O`, the TGI was over 100 µM in assay [10]; 64.6 µM in [1]; 56 µM in assay [2]; over 100 µM in assay [3]; 56.4 µM in assay [5]; 45.8 µM in assay [6]. The TGI was determined as 50.9 µM in [7], 48.5 µM in assay [8] and 57.3 µM in [9].
Consider `CC1CN=C(Nc2cccc(C(F)(F)F)c2)S1` (stereo unspecified), for which the TGI in assay [1] was over 100 µM; in assay [2], 78.6 µM; in assay [3], over 100 µM; in [4] it was over 100 µM; in assay [5], over 100 µM; in assay [7] it was over 100 µM. The compound also returned a TGI in assay [9] of over 100 µM.
As for `N#CCCNCCN(CCN(C(=O)Nc1ccccc1)c1ccccc1)C(=O)Nc1ccccc1`, the TGI in assay [1], in [2], in [3], in assay [4], in assay [5] and in assay [6] was over 100 µM each time. This compound also showed a TGI in assay [7] of over 100 µM.
As to `C=CCOc1ccc(C2c3c([nH][nH]c3=O)CC(O)(OCC)C2C(=O)OCC)cc1OC` (stereo unspecified), the TGI in assay [10], in [1], in assay [2], in assay [4], in assay [5] and in assay [6] was over 100 µM in each case. The TGI in assay [7], in assay [8] and in assay [9] was over 100 µM in each case.
Turning to `Cn1ccnc1CCc1ccc(F)cc1F`, the TGI in assay [1], in assay [2], in assay [3], in [4], in [5] and in assay [6] was over 100 µM each time. The TGI in assay [7], in assay [8] and in [9] was over 100 µM in each case.
On to `CC1(C)O[C@H](C(=O)O)[C@@H](C(=O)O)O1`, for which the TGI in [10], in assay [1], in assay [4], in assay [5], in assay [6] and in assay [7] was over 100 µM each time. Besides, the TGI in assay [8] and in assay [9] was over 100 µM in each case.
With `C=Nc1ccc([N+](=O)[O-])cc1`, the TGI in assay [10], in [1], in [2], in assay [5], in assay [6] and in [7] was over 100 µM throughout. In addition, the TGI in assay [8] and in [9] was over 100 µM each time.
Turning to `Cc1ccc(S(=O)(=O)NC(=O)NC(Cc2c[nH]c3ccccc23)C(=O)O)cc1` (stereo unspecified), the TGI in assay [1], in assay [2], in [3], in assay [5], in [6] and in assay [7] was over 100 µM throughout. In addition, the TGI in [8] and in assay [9] was over 100 µM each time.
As to `O=C1NN=C(c2ccc(Cl)cc2)CC1C1C(=O)N(c2ccccc2)N=C1c1ccccc1` (stereo unspecified), the TGI is over 100 µM in assay [1]; 56.6 µM in [2]; 54.4 µM in assay [3]; over 100 µM in [4]; 45.9 µM in assay [5]; 63.2 µM in [6]. Further, the TGI in [7] was 82.9 µM; in assay [8] it was 86.5 µM; in [9], over 100 µM.
As for `CN(NC(=O)/C(=C/c1ccc(O)cc1)NC(=O)c1ccccc1)c1ccnc2cc(Cl)ccc12`, the TGI in assay [10] is 33.8 µM; in [1], 36 µM; in assay [2], 18.6 µM; in [4], 30.4 µM; in assay [5] it was 37.2 µM; in assay [6], 35.8 µM. Also, the TGI in assay [7] came out at 28.5 µM; in assay [8], 33.6 µM; in assay [9], 35.8 µM.
Take `Cc1nc2c(cc1C(=O)NN)c(=O)n(C)c(=O)n2C`: the TGI in assay [10], in assay [2], in assay [3], in [4], in assay [6] and in assay [7] was over 100 µM throughout. Besides, the TGI in assay [8] and in assay [9] was over 100 µM each time.
For the compound `COc1cc(Oc2nc3ccccc3nc2C(=O)O)cc(OC)c1OC`, the TGI in [10], in assay [1], in assay [2], in [3], in assay [5] and in assay [6] was over 100 µM in each case. Also, the TGI in assay [7], in assay [8] and in assay [9] was over 100 µM each time.
For `CCOC(=O)c1ccc(-c2cc(C)[nH]n2)[nH]1`, the TGI in assay [10], in [1], in assay [2], in assay [3], in assay [5] and in [6] was over 100 µM throughout. Besides, the TGI in [7], in assay [8] and in assay [9] was over 100 µM in each case.
Regarding `Cc1cc(O)c(C(C)C)cc1NC(=O)Nc1cccc2ccccc12`, the TGI in assay [10] was determined as 30.7 µM; in [1], 40.9 µM; in assay [2], 42.9 µM; in [3], 36.1 µM; in assay [5], 49.9 µM; in assay [6], 34.6 µM. Moreover, the TGI in assay [7] was 31 µM; in [8], 24.4 µM; in [9], 38.8 µM.
For `O=S(=O)(c1cc(Cl)ccc1Cl)N1CCN(S(=O)(=O)c2cc(Cl)ccc2Cl)CC1`, the TGI in [10], in assay [1], in assay [2], in assay [3], in assay [4] and in [6] was over 100 µM throughout. Also, the TGI in assay [7] and in assay [9] was over 100 µM each time.
On to `CO/C(=N\N=C\c1ccc(Cl)cc1)c1ccncc1`, for which the TGI in assay [10], in assay [1], in assay [2], in assay [7], in assay [8] and in assay [9] was over 100 µM each time.
As for `CC(=O)Nc1ccc2c(C(=O)O)c(C)c(=O)[nH]c2n1`, the TGI in assay [10], in [1], in [2], in [3], in assay [4] and in assay [6] was over 100 µM throughout. The TGI in assay [7] and in assay [9] was over 100 µM each time.
Regarding `Cc1cc2c(cc1-c1cc3c(cc1C)C(C(C)C)=C(O)C(=O)/C3=C\Nc1nc(-c3ccccc3)cs1)/C(=C/Nc1nc(-c3ccccc3)cs1)C(=O)C(O)=C2C(C)C`, the TGI in [10] is over 100 µM; in [1], 72 µM; in assay [3] it was 89 µM; in assay [4], 41.1 µM; in [6], over 100 µM; in assay [7] it was 27.5 µM. Besides, the values for the TGI in [8] and in [9] were 86.7 µM and over 100 µM, respectively.
In the case of `CC(C)CC(=O)NC(Nc1ccc(S(=O)(=O)Nc2ncccn2)cc1)(C(F)(F)F)C(F)(F)F`, the TGI in assay [10], in [1], in assay [2], in assay [3], in assay [5] and in assay [6] was over 100 µM throughout. Further, the TGI in assay [7], in assay [8] and in assay [9] was over 100 µM in each case.
Turning to `CCN1CCN(C(=O)[C@]23CC[C@@H](C)[C@H](C)[C@@H]2C2=CC[C@@H]4[C@@]5(C)C/C(=C/c6cccnc6)C(=O)C(C)(C)[C@@H]5CC[C@@]4(C)[C@]2(C)CC3)CC1`, the GI50 in assay [10] was 2.12 µM; in assay [1] it was 1.77 µM; in assay [2], 1.36 µM; in assay [4], 1.64 µM; in assay [5], 1.58 µM; in assay [8], 2.57 µM. In addition, the GI50 in [9] was 1.75 µM. Further, the TGI in assay [10] was determined as 11.8 µM; in assay [1] it was 4.02 µM; in assay [2], 2.65 µM; in assay [4], 3.42 µM; in assay [5], 3.06 µM; in [8], 7.36 µM. Also, in [9], the TGI worked out at 3.56 µM.
As to `CCN(CC)CCCCCCCCNc1c2ccc(Cl)cc2nc2ccc(OC)cc12`, the GI50 is 2.37 µM in [10]; 1.7 µM in assay [1]; 1.72 µM in [2]; 1.48 µM in [5]; 1.38 µM in assay [7]; 1.14 µM in assay [8]. The GI50 in assay [9] is 1.42 µM. The TGI came out at 6.67 µM in [10]; 3.76 µM in assay [1]; 4.34 µM in assay [2]; 4.94 µM in [5]; 2.97 µM in assay [7]; 2.71 µM in [8]. The TGI in [9] was determined as 3.92 µM.
For the compound `CN(C)N=Nc1ccc([N+](=O)[O-])cc1C(N)=O`, the TGI in [10], in [1], in assay [2], in assay [4], in [5] and in [7] was over 100 µM in each case. Moreover, the TGI in [8] and in [9] was over 100 µM each time.
Turning to `CCNc1nc(N)c(C(=O)c2ccc(Cl)cc2)s1`, the TGI is over 100 µM in assay [1]; 40.2 µM in assay [2]; over 100 µM in assay [3]; over 100 µM in [4]; over 100 µM in assay [5]; over 100 µM in assay [6]. In addition, the TGI in [7], in assay [8] and in [9] was over 100 µM each time.
